Results: patent publication US7071205B2 (Ligand Pharmaceuticals Incorporated, priority 2002, dated 2006)
pEC50, pIC50, pKi: −log10 of the molar value. Where two headings read alike, the source gives them in different places.

Key:
hPR [1] = molecular target: T1, hPR (Homo sapiens, UniProt P06401); assay: Cotransfection assay, PR antagonist activity in CV-1 cells; type: cell-based; conditions: for pIC50: antagonist potency IC50; for PR Antagonist CV-1 Cells Efficacy (%): percent maximal response relative to reference antagonist
T1 sequence (P06401 1-933): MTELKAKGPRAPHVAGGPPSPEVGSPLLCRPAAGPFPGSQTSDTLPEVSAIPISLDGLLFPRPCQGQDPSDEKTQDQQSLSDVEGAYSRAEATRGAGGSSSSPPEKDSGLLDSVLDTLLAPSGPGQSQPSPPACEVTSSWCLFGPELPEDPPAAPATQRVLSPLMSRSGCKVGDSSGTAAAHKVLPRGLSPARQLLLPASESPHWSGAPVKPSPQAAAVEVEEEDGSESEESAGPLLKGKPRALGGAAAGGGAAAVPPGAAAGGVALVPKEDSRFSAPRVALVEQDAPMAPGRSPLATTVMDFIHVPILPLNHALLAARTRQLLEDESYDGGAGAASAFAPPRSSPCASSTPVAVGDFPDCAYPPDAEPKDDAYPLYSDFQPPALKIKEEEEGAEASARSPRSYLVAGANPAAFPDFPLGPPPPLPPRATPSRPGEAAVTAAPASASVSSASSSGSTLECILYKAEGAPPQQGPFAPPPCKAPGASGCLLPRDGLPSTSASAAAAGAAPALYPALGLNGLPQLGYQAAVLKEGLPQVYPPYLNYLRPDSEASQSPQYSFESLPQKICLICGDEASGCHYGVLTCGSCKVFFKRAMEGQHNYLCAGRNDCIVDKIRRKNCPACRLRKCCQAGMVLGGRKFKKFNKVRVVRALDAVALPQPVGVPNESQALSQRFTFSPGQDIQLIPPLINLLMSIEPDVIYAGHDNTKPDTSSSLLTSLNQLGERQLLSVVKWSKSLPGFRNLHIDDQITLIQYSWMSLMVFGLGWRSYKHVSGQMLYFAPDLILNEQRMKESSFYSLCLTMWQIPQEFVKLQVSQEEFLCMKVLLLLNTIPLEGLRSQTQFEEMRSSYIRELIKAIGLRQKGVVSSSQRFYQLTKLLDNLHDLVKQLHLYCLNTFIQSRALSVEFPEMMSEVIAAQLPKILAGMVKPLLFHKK

hPR-A = molecular target: T2, hPR-A (Homo sapiens, UniProt P06401); assay: Receptor competitive binding assay; conditions: hPR-A; read-out: PR Binding Ki
T2 sequence (P06401 1-769 isoform P06401-2): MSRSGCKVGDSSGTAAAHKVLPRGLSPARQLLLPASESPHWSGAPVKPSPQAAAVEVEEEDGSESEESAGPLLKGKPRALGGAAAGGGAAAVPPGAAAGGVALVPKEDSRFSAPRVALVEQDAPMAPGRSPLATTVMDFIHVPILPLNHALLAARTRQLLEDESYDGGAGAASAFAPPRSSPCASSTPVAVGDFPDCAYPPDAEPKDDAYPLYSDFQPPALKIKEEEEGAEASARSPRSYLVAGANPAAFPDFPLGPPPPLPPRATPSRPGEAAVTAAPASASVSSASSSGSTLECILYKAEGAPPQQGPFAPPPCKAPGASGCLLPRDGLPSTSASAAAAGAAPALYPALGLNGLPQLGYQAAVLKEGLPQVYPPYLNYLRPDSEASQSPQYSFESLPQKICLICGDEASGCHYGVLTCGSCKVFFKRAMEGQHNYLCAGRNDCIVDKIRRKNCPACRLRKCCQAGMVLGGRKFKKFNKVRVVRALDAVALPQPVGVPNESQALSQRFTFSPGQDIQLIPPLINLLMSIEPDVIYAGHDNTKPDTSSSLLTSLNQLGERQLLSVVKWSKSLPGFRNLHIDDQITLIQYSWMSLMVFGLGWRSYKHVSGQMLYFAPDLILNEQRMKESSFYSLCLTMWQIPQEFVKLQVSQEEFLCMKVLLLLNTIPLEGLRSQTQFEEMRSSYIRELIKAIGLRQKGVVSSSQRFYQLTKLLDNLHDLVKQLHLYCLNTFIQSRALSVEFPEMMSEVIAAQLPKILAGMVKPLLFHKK

hPR [2] = molecular target: T1, hPR; assay: Cotransfection assay, PR agonist activity in CV-1 cells; type: cell-based; conditions: for pEC50: agonist potency EC50, read-out: PR Agonist CV-1 Cells Potency
immature rabbits = assay: McPhail (Clauberg) assay of progestational activity; type: in vivo, rabbit; conditions: minimum active dose; estradiol-primed immature rabbits, uterine glandular changes
Protocol: The in vivo activity of selected hPR modulator compounds of the present invention were evaluated utilizing the McPhail assay, according to the following illustrative Examples. The Clauberg or McPhail assay is a classic assay utilizing rabbits to measure progestational activity. […] This is followed by treatment with a progestin, which causes a large change in the glandular content of the uterus. It is this change in the glandular component, which is a measure of the progestational activity of a progestin. The measurement of these glandular changes are carried out histologically using stained sections of the uterus. The in vivo potency of the progestins is presented as the minimum active dose (MAD) in mg/kg.

[3] = CV-1 cells, MTV-LUC reporter, percent maximal response relative to progesterone

pIC50 (hPR [1]) | pKi (hPR-A) | PR Agonist CV-1 Cells Efficacy (%) (hPR [2]; [3]) | pEC50 (hPR [2]; CV-1 cells) | Structure (SMILES) | PR Antagonist CV-1 Cells Efficacy (%) (hPR [1]) | MAD (immature rabbits) | PR Agonist CV-1 Cells Efficacy (%) (hPR [2])
< 5.00 | 8.20 | 86% | 8.01 | CC1=CC(C2Oc3ccc(F)cc3-c3ccc4c(c32)C(C)=CC(C)(C)N4)CCC1 (racemic) [Compound 25, (±)-(5l,1′u)-5-(3-methyl-2-cyclohexenyl)-9-fluoro-1,2-dihydro-2,2,4-trimethyl-5H-chromeno[3,4-f]quinoline] | na (na = not active (i.e. efficacy of <20 and potency of >10,000)) |  | 
 |  | 164% |  | CC1=C[C@H]([C@H]2Oc3c(F)cc(F)cc3-c3ccc4c(c32)C(C)=CC(C)(C)N4)CCC1 (racemic) [Compound 34, (±)-(5l,1′l)-5-(3-methyl-2-cyclohexenyl)-7,9-difluoro-1,2-dihydro-2,2,4-trimethyl-5H-chromeno[3,4-f]quinoline] | na (na = not active (i.e. efficacy of <20 and potency of >10,000)) | 0.25 mg/kg | 
 |  | 100% |  | CC1=C[C@@H]([C@H]2Oc3c(F)cc(F)cc3-c3ccc4c(c32)C(C)=CC(C)(C)N4)CCC1 (racemic) [Compound 35, (±)-(5l,1′u)-5-(3-methyl-2-cyclohexenyl)-7,9-difluoro-1,2-dihydro-2,2,4-trimethyl-5H-chromeno[3,4-f]quinoline] | na (na = not active (i.e. efficacy of <20 and potency of >10,000)) |  | 
< 5.00 | 7.96 | 122% | 8.00 | CC1=C[C@H]([C@H]2Oc3ccc(F)cc3-c3ccc4c(c32)C=CC(C)(C)N4)CCC1 (racemic) [Compound 41, (±)-(5l,1′l)-5-(3-methyl-2-cyclohexenyl)-9-fluoro-1,2-dihydro-2,2-dimethyl-5H-chromeno[3,4-f]quinoline] | na (na = not active (i.e. efficacy of <20 and potency of >10,000)) |  | 
< 5.00 | 6.84 | 27% | 7.42 | CC1=C[C@@H]([C@H]2Oc3ccc(F)cc3-c3ccc4c(c32)C=CC(C)(C)N4)CCC1 (racemic) [Compound 42, (±)-(5l,1′u)-5-(3-methyl-2-cyclohexenyl)-9-fluoro-1,2-dihydro-2,2-dimethyl-5H-chromeno[3,4-f]quinoline] | na (na = not active (i.e. efficacy of <20 and potency of >10,000)) |  | 
< 5.00 | 8.11 | 123% | 8.17 | CC1=CC(C2Oc3ccc(F)cc3-c3ccc4c(c32)C(C)=CC(C)(C)N4)CC1 (racemic) [Compound 44, (±)-(5l,1′l)-5-(3-methyl-2-cyclopentenyl)-9-fluoro-1,2-dihydro-2,2,4-trimethyl-5H-chromeno[3,4-f]quinoline] | na (na = not active (i.e. efficacy of <20 and potency of >10,000)) |  | 
< 5.00 | 7.77 | 94% | 8.04 | CC1=CC(C2Oc3ccc(F)cc3-c3ccc4c(c32)C(C)=CC(C)(C)N4)CC1 (racemic) [Compound 45, (±)-(5l,1′u)-5-(3-methyl-2-cyclopentenyl)-9-fluoro-1,2-dihydro-2,2,4-trimethyl-5H-chromeno[3,4-f]quinoline] | na (na = not active (i.e. efficacy of <20 and potency of >10,000)) |  | 
< 5.00 | 6.62 | 68% | 7.37 | CC1=CC(C2Oc3ccc(F)cc3-c3ccc4c(c32)C(C)=CC(C)(C)N4)CCC1 (single isomer, unassigned; (+)) [Compound 27, (+)-(5l,1′l)-5-(3-methyl-2-cyclohexenyl)-9-fluoro-1,2-dihydro-2,2,4-trimethyl-5H-chromeno[3,4-f]quinoline] | na (na = not active (i.e. efficacy of <20 and potency of >10,000)) |  | 
< 5.00 | 8.70 | 171% | 9.05 | CC1=CC(C2Oc3ccc(F)cc3-c3ccc4c(c32)C(C)=CC(C)(C)N4)CCC1 (single isomer, unassigned; (-)) [Compound 28, (−)-(5l,1′l)-5-(3-methyl-2-cyclohexenyl)-9-fluoro-1,2-dihydro-2,2,4-trimethyl-5H-chromeno[3,4-f]quinoline] | na (na = not active (i.e. efficacy of <20 and potency of >10,000)) |  | 
 |  | 100% |  | CC(=O)[C@H]1CC[C@H]2[C@@H]3CCC4=CC(=O)CC[C@]4(C)[C@H]3CC[C@]12C [Prog, progesterone, reference compound] |  |  | 
 |  |  |  | CC#C[C@]1(O)CC[C@H]2[C@@H]3CCC4=CC(=O)CCC4=C3[C@@H](c3ccc(N(C)C)cc3)C[C@@]21C [RU486, mifepristone, reference compound] |  |  | na (key: na = not active (i.e. efficacy of <20 and potency of >10,000))
 |  |  |  | CN(C)c1ccc([C@H]2C[C@]3(C)[C@@H](CC[C@]3(O)CCCO)[C@@H]3CCC4=CC(=O)CCC4=C32)cc1 [ZK299, reference compound] | 99% |  | 

Structure (SMILES) | pIC50 (hPR [1]) | pKi (hPR-A) | PR Agonist CV-1 Cells Efficacy (%) (hPR [2]; [3]) | pEC50 (hPR [2]; CV-1 cells) | PR Antagonist CV-1 Cells Efficacy (%) (hPR [1]) | MAD (immature rabbits) | PR Agonist CV-1 Cells Efficacy (%) (hPR [2])
COc1cc2c(cc1F)-c1ccc3c(c1C(C1C=C(C)CCC1)O2)C(C)=CC(C)(C)N3 (racemic) [Compound 64, (±)-(5l,1′l)-5-(3-methyl-2-cyclohexenyl)-9-fluoro-1,2-dihydro-8-methoxy-2,2,4-trimethyl-5H-chromeno[3,4-f]quinoline] | 5.72 | 6.31 | na (na = not active (i.e. efficacy of <20 and potency of >10,000)) | < 5.00 | 80% |  | 
COc1cc2c(cc1F)-c1ccc3c(c1C(C1C=C(C)CCC1)O2)C(C)=CC(C)(C)N3 (racemic) [Compound 65, (±)-(5l,1′u)-5-(3-methyl-2-cyclohexenyl)-9-fluoro-1,2-dihydro-8-methoxy-2,2,4-trimethyl-5H-chromeno[3,4-f]quinoline] | 6.19 | 6.48 | na (na = not active (i.e. efficacy of <20 and potency of >10,000)) | < 5.00 | 59% |  | 
CC1=CC(C2Oc3c(F)cc(F)cc3-c3ccc4c(c32)C(C)=CC(C)(C)N4)CCC1 (single isomer, unassigned; (+)) [Compound 37, (+)-(5l,1′l)-5-(3-methyl-2-cyclohexenyl)-7,9-difluoro-1,2-dihydro-2,2,4-trimethyl-5H-chromeno[3,4-f]quinoline] |  |  | na (na = not active (i.e. efficacy of <20 and potency of >10,000)) |  | 50% |  | 
